Results taken from US20090246269A1, “IDENTIFICATION AND USE OF GPRC VARIANTS IN THE TREATMENT AND DIAGNOSIS OF PARKINSON'S DISEASE” (priority 2006, published 2009).

Biological target: T1, BDKRB2 reference form (Homo sapiens, UniProt P30411)
T1 construct: expressed in transfected cells; host or cells: CHO-K1
T1 sequence (P30411 1-391): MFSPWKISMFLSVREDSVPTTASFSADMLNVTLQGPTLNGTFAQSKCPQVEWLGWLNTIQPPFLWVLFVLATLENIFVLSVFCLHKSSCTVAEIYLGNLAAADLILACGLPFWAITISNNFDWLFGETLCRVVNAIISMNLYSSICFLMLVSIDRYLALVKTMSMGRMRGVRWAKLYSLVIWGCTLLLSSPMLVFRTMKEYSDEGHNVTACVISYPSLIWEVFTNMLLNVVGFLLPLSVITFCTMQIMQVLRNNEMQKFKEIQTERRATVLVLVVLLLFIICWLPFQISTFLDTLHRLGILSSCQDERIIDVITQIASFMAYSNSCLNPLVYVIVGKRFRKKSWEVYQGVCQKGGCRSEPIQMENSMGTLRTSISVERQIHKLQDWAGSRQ
Test: NFAT-Firefly luciferase reporter assay (Dual-Glo) of BDKRB2 dependent signaling in transfected CHO-K1 cells
Type: cell-based
Conditions: 8 hour time-point
Description: FIG. 10: Effect of bradyzide titration on the activity of BDKRB2 reference form. CHO-K1 cells were transfected with pNFAT—Firefly Luciferase reporter, BDKBR2-pcDNA3.1 and pGL4.73 [hRenilla Luciferase/SV40]. 18 hrs after transfection, cells were treated with bradyzide at indicated concentration in 10% FBS medium for 8, 24 and 48 hrs. The Firefly luciferase reporter activity and the renilla luciferase activity were measured sequentially. BDKRB2 activity was estimated by calculating the Ratios of Firefly and Renilla Luciferase Units (RLU).
The Promega Dual-Glo™ Assay system was used to indirectly monitor BDKRB2 dependent signaling.

inhibition of serum induced activity in luciferase reporter assay: inhibited
reduction of serum-induced basal BDKRB2 activity (bradyzide titration, 10% FBS medium): about 40%
SMILES: CN(C)CCN(C)CCNC(=O)[C@@H]1CCCN1S(=O)(=O)c1ccc(NNC(=S)NC(c2ccccc2)c2ccccc2)c([N+](=O)[O-])c1 [bradyzide]
